From patent US20240108601A1, “TREATMENT OF MENTAL DISORDERS” (GH Research Ireland Limited, priority 2022, published 2024)
Several values for one entry are separate records, joined by “and”; a condition that tells them apart may be missing. Equal entries are not always repeated. Where two headings read alike, the source gives them in different places.

Experiments:
[1] = Pharmacokinetics of 5-MeO-DMT and bufotenine after single inhaled dose; format: in vivo, human; details: for Cmax: human, plasma, inhaled or intranasal, inhalation, n=8, read-out: Median Cmax
Method: Blood samples were obtained at 1; 2; 4; 7; 10; 15; 20; 30; 45 min and 1; 1.5; 2; 3; 4 hours after administration.
PK parameters were generated by algebraic analysis of the concentration versus time plots for each individual. The analysis was carried out using the software Phoenix WinNonlin 6.3.

[2] = tested on: Escherichia coli WP2 uvrA pKM101; experiment: Bacterial reverse mutation test; format: cell-based; details: up to 5000 μg/plate; with and without S-9
Method: (§1) These conditions included treatments at concentrations up to 5000 μg/plate (the maximum recommended concentration according to current regulatory guidelines), in the absence and in the presence of a rat liver metabolic activation system (S-9).

[3] = tested on: Salmonella typhimurium TA98, TA100, TA1535 and TA1537; experiment: Bacterial reverse mutation test; format: cell-based; details: up to 5000 μg/plate; with and without S-9
Method: as §1

[4] = tested on: patients with postpartum depression (PPD); experiment: Clinical trial of inhaled 5-MeO-DMT in postpartum depression; format: in vivo, human; details: for BIMF domain Adjustment score / BIMF domain Infant Care score: max 12; for BIMF domain Infant Care score: Day 0 12; for BIMF domain Management score: max 36; for BIMF domain Psychological Well-being score: max 60; for BIMF TOTAL score: possible total 120; for Time to clinical remission after administration: IDR 6 mg then 12 mg
Excerpt: The patient completed all planned visit days.

[5] = LC-MS/MS of 5-MeO-DMT, bufotenine and 5-MIAA in urine, serum and breastmilk of lactating PPD patient; infant exposure estimates; details: for Breastmilk concentration / Serum concentration / Urine concentration: second patient
Excerpt: When determining the potential impact of maternal drug administration on a breastfed infant, it is standard practice to calculate the Relative Infant Dose (RID) (Bennett, P. N., and L. J. Notarianni. “Risk from drugs in breast milk: an analysis by relative dose.” Br J Clin Pharmacol 42.5 (1996): P673-4). The RID is the dosage (in μg/kg/day) the infant is exposed to by the intake of breast milk, divided by the dosage (in μg/kg/day) the mother receives.
Using estimates for daily intake of breast milk and the number of feeds as well as the measured breast milk concentrations the exposure of the infant can be determined.
For example, a published estimate for daily intake of breast milk as a function of infant weight is 150 ml/kg/day. To model the exposure, it is assumed that an infant of 5 kg is fed three times over 24 hours, receiving 250 ml breast milk each time.
The second patient was lactating, and, per the clinical trial protocol, breastmilk samples were collected pre-dosing and at multiple timepoints after administration of the last dose. […] Similar analyses were carried out on patient serum and urine samples.

[6] = second patient, Day 7 (visit on day 5)
[7] = female, human, breast milk, inhaled

**Q.** Which results are given for `COc1ccc2[nH]cc(CCN(C)C)c2c1` [5-MeO-DMT]?
**A.** Detectability in plasma ([1]; 3 hours after inhalation, 6, 12, 18 mg): no longer detectable; Cmax ([1]; 6 mg group): 11.8 ng/mL; Cmax ([1]; 12 mg group): 22.9 ng/mL; Cmax ([1]; 18 mg group): 38.5 ng/mL; Accumulation upon repeated administration ([1]; repeated administration within 1 to 4 hours): No accumulation; Mutation induction [2]: did not induce mutation; Mutation induction [3]: did not induce mutation; BIMF TOTAL Δ (Day 7) ([4]; first patient): 13; BIMF domain Adjustment Δ (Day 7) ([4]; first patient): 1; BIMF domain Infant Care Δ (Day 7) ([4]; first patient): 0; BIMF domain Management Δ (Day 7) ([4]; first patient): 5; BIMF domain Mother-Child Interaction Δ (Day 7) ([4]; first patient): 2; BIMF domain Psychological Well-being Δ (Day 7) ([4]; first patient): 9; BIMF domain Self-Care Δ (Day 7) ([4]; first patient): 4; BIMF domain Social Support Δ (Day 7) ([4]; first patient): 1; PES score ([4]; first patient, 12 mg): 85.7; Total MADRS improvement ([4]; first patient, 2 hr): 24; Total MADRS score ([4]; first patient, 2 hr, baseline 29): 5; BPRS item score ([4]; first patient, Day 1): 1; MADRS item score ([4]; first patient, Day 1): 0; Total MADRS improvement ([4]; first patient, Day 1): 29; Total MADRS score ([4]; first patient, Day 1, baseline 29): 0; BIMF domain Adjustment % improvement ([4]; first patient, Day 7): 20.00%; BIMF domain Infant Care % improvement ([4]; first patient, Day 7): 0.00%; BIMF domain Management % improvement ([4]; first patient, Day 7): 18% and 17.86%; BIMF domain Mother-Child Interaction % improvement ([4]; first patient, Day 7): 13.33%; BIMF domain Psychological Well-being % improvement ([4]; first patient, Day 7): 20.45%; BIMF domain Self-Care % improvement ([4]; first patient, Day 7): 44% and 44.44%; BIMF domain Social Support % improvement ([4]; first patient, Day 7): 5.88%; BIMF total score improvement ([4]; first patient, Day 7): 14%; BPRS item score ([4]; first patient, Day 7): 1; Total MADRS improvement ([4]; first patient, Day 7): 28; BIMF domain Adjustment score ([4]; first patient, Day 7, Day 0 5): 6; BIMF domain Self-Care score ([4]; first patient, Day 7, Day 0 9, max 18): 13; BIMF domain Infant Care score ([4]; first patient, Day 7): 12; BIMF domain Mother-Child Interaction score ([4]; first patient, Day 7, Day 0 15, max 18): 17; BIMF domain Social Support score ([4]; first patient, Day 7, Day 0 17, max 18): 18; BIMF domain Management score ([4]; first patient, Day 7, Day 0 28): 33; BIMF domain Psychological Well-being score ([4]; first patient, Day 7, Day 0 44): 53; BIMF TOTAL score ([4]; first patient, Day 7, Day 0 92): 105; Total MADRS score ([4]; first patient, Day 7, baseline 29): 1; BPRS item score ([4]; first patient, Discharge): 1; Time to clinical remission after administration ([4]; first patient): ≤ 2 h; Reported adverse events ([4]; first patient, cramping left abdominal pain and headache, Day 0): mild, short-lasting and resolved spontaneously; PES score ([4]; first patient, nominal dose 6 mg): 17.3; BIMF TOTAL Δ (Day 7) ([4]; second patient): 45; BIMF domain Adjustment Δ (Day 7) ([4]; second patient): 9; BIMF domain Infant Care Δ (Day 7) ([4]; second patient): 0; BIMF domain Management Δ (Day 7) ([4]; second patient): 13; BIMF domain Mother-Child Interaction Δ (Day 7) ([4]; second patient): 7; BIMF domain Psychological Well-being Δ (Day 7) ([4]; second patient): 27; BIMF domain Self Care Δ (Day 7) ([4]; second patient): 10; BIMF domain Social Support Δ (Day 7) ([4]; second patient): 3; PES score ([4]; second patient, 12 mg): 94.7; Total MADRS score ([4]; second patient, 2 hr, baseline 41): 5; Total MADRS improvement ([4]; second patient, 2 hrs): 36; BPRS item score ([4]; second patient, Day 1): 1; MADRS item score ([4]; second patient, Day 1): 0; Total MADRS improvement ([4]; second patient, Day 1): 41; Total MADRS score ([4]; second patient, Day 1, baseline 41): 0; BIMF domain Adjustment % improvement ([4]; second patient, Day 7): 450%; BIMF domain Infant Care % improvement ([4]; second patient, Day 7): 0%; BIMF domain Management % improvement ([4]; second patient, Day 7): 76%; BIMF domain Mother-Child Interaction % improvement ([4]; second patient, Day 7): 70%; BIMF domain Psychological Well-being % improvement ([4]; second patient, Day 7): 113%; BIMF domain Self Care % improvement ([4]; second patient, Day 7): 333%; BIMF item score ([4]; second patient, Day 7): 6 and 5 and 4; BIMF total score improvement ([4]; second patient, Day 7): over 40%; BPRS item score [4, 6]: 1; MADRS item score [4, 6]: 0; Total MADRS improvement [4, 6]: 41; Total MADRS score ([4]; second patient, Day 7 (visit on day 5), baseline 41): 0; BIMF domain Adjustment score ([4]; second patient, Day 7, Day 0 2): 11; BIMF domain Self Care score ([4]; second patient, Day 7, Day 0 3, max 18): 13; BIMF domain Mother-Child Interaction score ([4]; second patient, Day 7, Day 0 10, max 18): 17; BIMF domain Social Support score ([4]; second patient, Day 7, Day 0 11, max 18): 14; BIMF domain Infant Care score ([4]; second patient, Day 7): 12; BIMF domain Management score ([4]; second patient, Day 7, Day 0 17): 30; BIMF domain Psychological Well-being score ([4]; second patient, Day 7, Day 0 24): 51; BIMF TOTAL score ([4]; second patient, Day 7, Day 0 59 (table)): 104; BPRS item score ([4]; second patient, Discharge): 1; Time to clinical remission after administration ([4]; second patient): ≤ 2 h; PES score ([4]; second patient, nominal dose 6 mg): 1; Reported adverse events ([4]; second patient, vomiting Day 0, headache Day 5): mild, short-lasting and resolved spontaneously; Daily Infant Dosage (DID) per kg ([5]; 5 kg infant, three feeds of 250 ml): 0.0001385 mg/kg/day; concentration at 1 h [5, 7]: 2.17 ng/mL; concentration at 2.5 h [5, 7]: 0.561 ng/mL; concentration at 8.5 h [5, 7]: 0.0421 ng/mL; concentration at 1 h ([5]; female, human, serum, inhaled): 0.133 ng/mL; Breastmilk concentration ([5]; 1.0 hrs after last dose): 2167 pg/mL; Serum concentration ([5]; 2.5 hrs after last dose): BLQ (Below limit of quantification. The lower limit of quantification is 25 pg/ml for both 5-MeO-DMT and 5-MIAA in both serum and breastmilk; it is 25 pg/ml in urine for 5-MeO-DMT and 250 pg/ml for 5-MIAA in urine.); Urine concentration ([5]; 8.5 hrs after last dose): BLQ (Below limit of quantification. The lower limit of quantification is 25 pg/ml for both 5-MeO-DMT and 5-MIAA in both serum and breastmilk; it is 25 pg/ml in urine for 5-MeO-DMT and 250 pg/ml for 5-MIAA in urine.); Breastmilk concentration ([5]; 24.0 hrs after last dose): did not detect and BLG; Serum concentration ([5]; 24.0 hrs after last dose): BLQ (Below limit of quantification. The lower limit of quantification is 25 pg/ml for both 5-MeO-DMT and 5-MIAA in both serum and breastmilk; it is 25 pg/ml in urine for 5-MeO-DMT and 250 pg/ml for 5-MIAA in urine.); Urine concentration ([5]; 24.0 hrs after last dose): BLQ (Below limit of quantification. The lower limit of quantification is 25 pg/ml for both 5-MeO-DMT and 5-MIAA in both serum and breastmilk; it is 25 pg/ml in urine for 5-MeO-DMT and 250 pg/ml for 5-MIAA in urine.); Breastmilk concentration ([5]; 120.0 hrs after last dose): BLQ (Below limit of quantification. The lower limit of quantification is 25 pg/ml for both 5-MeO-DMT and 5-MIAA in both serum and breastmilk; it is 25 pg/ml in urine for 5-MeO-DMT and 250 pg/ml for 5-MIAA in urine.); Serum concentration ([5]; 120.0 hrs after last dose): BLQ (Below limit of quantification. The lower limit of quantification is 25 pg/ml for both 5-MeO-DMT and 5-MIAA in both serum and breastmilk; it is 25 pg/ml in urine for 5-MeO-DMT and 250 pg/ml for 5-MIAA in urine.); Urine concentration ([5]; 120.0 hrs after last dose): BLQ (Below limit of quantification. The lower limit of quantification is 25 pg/ml for both 5-MeO-DMT and 5-MIAA in both serum and breastmilk; it is 25 pg/ml in urine for 5-MeO-DMT and 250 pg/ml for 5-MIAA in urine.); Breastmilk concentration ([5]; −24.0 hrs (pre-dosing)): BLQ (Below limit of quantification. The lower limit of quantification is 25 pg/ml for both 5-MeO-DMT and 5-MIAA in both serum and breastmilk; it is 25 pg/ml in urine for 5-MeO-DMT and 250 pg/ml for 5-MIAA in urine.); Serum concentration ([5]; −24.0 hrs (pre-dosing)): BLQ (Below limit of quantification. The lower limit of quantification is 25 pg/ml for both 5-MeO-DMT and 5-MIAA in both serum and breastmilk; it is 25 pg/ml in urine for 5-MeO-DMT and 250 pg/ml for 5-MIAA in urine.); Urine concentration ([5]; −24.0 hrs (pre-dosing)): BLQ (Below limit of quantification. The lower limit of quantification is 25 pg/ml for both 5-MeO-DMT and 5-MIAA in both serum and breastmilk; it is 25 pg/ml in urine for 5-MeO-DMT and 250 pg/ml for 5-MIAA in urine.)
